Reference: PubChem BioAssay AID2060616 (Molecular Pharmacology Branch, DTP, NCI, 2025)
Values belong to the molecule of their own block, whether it stands above or below them.

Test system: 377384-186-R-J1-PDC complex spheroid viability
Assay: Anticancer human tumor 377384-186-R-J1-PDC patient-derived pancreatic carcinoma cell line growth inhibition [CLK]
Settings: for IC50: curve of first compound; for viability, T/C: stronger effect = lower value
Procedure, shortened: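 Patient-derived tumor cells grown as complex spheroids with HUVEC endothelial cells and mesenchymal stem cells, treated with drug combinations. Concentrations descend in half-log steps from near clinical Cmax, or from 10 microM if Cmax unknown.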

[1] = second compound 0.0316 µM, first compound 0.0316 µM
[2] = second compound 0.0316 µM, first compound 0.1 µM
[3] = second compound 0.0316 µM, first compound 0.316 µM
[4] = second compound 0.0316 µM, first compound 1 µM
[5] = second compound 0.0316 µM, first compound 3.16 µM
[6] = second compound 0.0316 µM, first compound 10 µM
[7] = second compound 0.1 µM, first compound 0.0316 µM
[8] = second compound 0.1 µM, first compound 0.1 µM
[9] = second compound 0.1 µM, first compound 0.316 µM
[10] = second compound 0.1 µM, first compound 1 µM
[11] = second compound 0.1 µM, first compound 3.16 µM
[12] = second compound 0.1 µM, first compound 10 µM
[13] = second compound 0.316 µM, first compound 0.0316 µM
[14] = second compound 0.316 µM, first compound 0.1 µM
[15] = second compound 0.316 µM, first compound 0.316 µM
[16] = second compound 0.316 µM, first compound 1 µM
[17] = second compound 0.316 µM, first compound 3.16 µM
[18] = second compound 0.316 µM, first compound 10 µM
[19] = second compound 1 µM, first compound 0.0316 µM
[20] = second compound 1 µM, first compound 0.1 µM
[21] = second compound 1 µM, first compound 0.316 µM
[22] = second compound 1 µM, first compound 1 µM
[23] = second compound 1 µM, first compound 3.16 µM
[24] = second compound 1 µM, first compound 10 µM
[25] = second compound 3.16 µM, first compound 0.0316 µM
[26] = second compound 3.16 µM, first compound 0.1 µM
[27] = second compound 3.16 µM, first compound 0.316 µM
[28] = second compound 3.16 µM, first compound 1 µM
[29] = second compound 3.16 µM, first compound 3.16 µM
[30] = second compound 3.16 µM, first compound 10 µM
[31] = second compound 10 µM, first compound 0.0316 µM
[32] = second compound 10 µM, first compound 0.1 µM
[33] = second compound 10 µM, first compound 0.316 µM
[34] = second compound 10 µM, first compound 1 µM
[35] = second compound 10 µM, first compound 3.16 µM
[36] = second compound 10 µM, first compound 10 µM
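Further: spheroids exposed to agents for 7 days before reading.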
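Wherever viability, T/C is given: luminescence signal used as a stand-in for viable cells.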

IC50 (second compound 0.0316 µM): > 10000 nM
IC50 (second compound 0.1 µM): 2760 nM
IC50 (second compound 0.316 µM): < 31.6 nM
IC50 (second compound 1 µM): < 31.6 nM
IC50 (second compound 3.16 µM): < 31.6 nM
IC50 (second compound 10 µM): < 31.6 nM
Structure (SMILES): C=CC(=O)N1CCN(c2nc(=O)n(-c3c(C)ccnc3C(C)C)c3nc(-c4c(O)cccc4F)c(F)cc23)C(C)C1 (stereo unspecified) + CNC(=O)c1ccc(Nc2nc(OC3CCCC3)c3c(-c4ccc5nc(C)oc5c4)c[nH]c3n2)c(OC)c1
viability, T/C [1]: 108%
viability, T/C [2]: 111%
viability, T/C [3]: 99.1%
viability, T/C [4]: 111%
viability, T/C [5]: 116%
viability, T/C [6]: 91.7%
viability, T/C [7]: 62.5%
viability, T/C [8]: 64.7%
viability, T/C [9]: 56.4%
viability, T/C [10]: 68.6%
viability, T/C [11]: 48.3%
viability, T/C [12]: 36%
viability, T/C [13]: 22.9%
viability, T/C [14]: 18.9%
viability, T/C [15]: 20.5%
viability, T/C [16]: 25%
viability, T/C [17]: 24%
viability, T/C [18]: 21.4%
viability, T/C [19]: 20.2%
viability, T/C [20]: 20.1%
viability, T/C [21]: 18.3%
viability, T/C [22]: 21.3%
viability, T/C [23]: 23.1%
viability, T/C [24]: 21.5%
viability, T/C [25]: 23.6%
viability, T/C [26]: 23.5%
viability, T/C [27]: 22%
viability, T/C [28]: 24.5%
viability, T/C [29]: 26.1%
viability, T/C [30]: 23.1%
viability, T/C [31]: 18.7%
viability, T/C [32]: 18.3%
viability, T/C [33]: 18.4%
viability, T/C [34]: 20.3%
viability, T/C [35]: 23.8%
viability, T/C [36]: 19.7%

IC50 (second compound 0.0316 µM): 9170 nM
IC50 (second compound 0.1 µM): 3300 nM
IC50 (second compound 0.316 µM): < 31.6 nM
IC50 (second compound 1 µM): < 31.6 nM
IC50 (second compound 3.16 µM): < 31.6 nM
IC50 (second compound 10 µM): < 31.6 nM
Structure (SMILES): CC(CO)NC(=O)c1cc(-c2ccc(Cl)cc2)nn(-c2cnn(C)c2)c1=O (stereo unspecified) + CNC(=O)c1ccc(Nc2nc(OC3CCCC3)c3c(-c4ccc5nc(C)oc5c4)c[nH]c3n2)c(OC)c1
viability, T/C [1]: 102%
viability, T/C [2]: 120%
viability, T/C [3]: 117%
viability, T/C [4]: 106%
viability, T/C [5]: 85.1%
viability, T/C [6]: 47.1%
viability, T/C [7]: 64.1%
viability, T/C [8]: 75.6%
viability, T/C [9]: 55.4%
viability, T/C [10]: 58.4%
viability, T/C [11]: 53.1%
viability, T/C [12]: 35.9%
viability, T/C [13]: 23.6%
viability, T/C [14]: 25.4%
viability, T/C [15]: 24.7%
viability, T/C [16]: 22.7%
viability, T/C [17]: 24.4%
viability, T/C [18]: 20.5%
viability, T/C [19]: 26.8%
viability, T/C [20]: 20.7%
viability, T/C [21]: 21%
viability, T/C [22]: 22%
viability, T/C [23]: 20.5%
viability, T/C [24]: 17.8%
viability, T/C [25]: 21%
viability, T/C [26]: 21.2%
viability, T/C [27]: 21.7%
viability, T/C [28]: 23.9%
viability, T/C [29]: 22.3%
viability, T/C [30]: 19.6%
viability, T/C [31]: 22.5%
viability, T/C [32]: 21.3%
viability, T/C [33]: 20.4%
viability, T/C [34]: 19.9%
viability, T/C [35]: 18.1%
viability, T/C [36]: 19.1%

IC50 (second compound 0.0316 µM): 29.9 nM
IC50 (second compound 0.1 µM): 12.2 nM
IC50 (second compound 0.316 µM): < 3.16 nM
IC50 (second compound 1 µM): < 3.16 nM
IC50 (second compound 3.16 µM): < 3.16 nM
IC50 (second compound 10 µM): < 3.16 nM
Structure (SMILES): COc1c(OCCCN2CCOCC2)ccc2c3n(c(=NC(=O)c4cnc(N)nc4)nc12)CCN3 + CNC(=O)c1ccc(Nc2nc(OC3CCCC3)c3c(-c4ccc5nc(C)oc5c4)c[nH]c3n2)c(OC)c1
viability, T/C (second compound 0.0316 µM, first compound 0.00316 µM): 74.8%
viability, T/C (second compound 0.0316 µM, first compound 0.01 µM): 66.1%
viability, T/C [1]: 47.6%
viability, T/C [2]: 33.9%
viability, T/C [3]: 23.1%
viability, T/C [4]: 14%
viability, T/C (second compound 0.1 µM, first compound 0.00316 µM): 63.3%
viability, T/C (second compound 0.1 µM, first compound 0.01 µM): 54.5%
viability, T/C [7]: 35.7%
viability, T/C [8]: 27.5%
viability, T/C [9]: 17.4%
viability, T/C [10]: 12%
viability, T/C (second compound 0.316 µM, first compound 0.00316 µM): 19.1%
viability, T/C (second compound 0.316 µM, first compound 0.01 µM): 19.1%
viability, T/C [13]: 14.5%
viability, T/C [14]: 14%
viability, T/C [15]: 11.6%
viability, T/C [16]: 10.4%
viability, T/C (second compound 1 µM, first compound 0.00316 µM): 19%
viability, T/C (second compound 1 µM, first compound 0.01 µM): 16.6%
viability, T/C [19]: 16.8%
viability, T/C [20]: 12.2%
viability, T/C [21]: 10.7%
viability, T/C [22]: 9.69%
viability, T/C (second compound 3.16 µM, first compound 0.00316 µM): 19.9%
viability, T/C (second compound 3.16 µM, first compound 0.01 µM): 17.6%
viability, T/C [25]: 13.6%
viability, T/C [26]: 12.9%
viability, T/C [27]: 9.91%
viability, T/C [28]: 9.78%
viability, T/C (second compound 10 µM, first compound 0.00316 µM): 21.4%
viability, T/C (second compound 10 µM, first compound 0.01 µM): 17.7%
viability, T/C [31]: 14.4%
viability, T/C [32]: 11.6%
viability, T/C [33]: 10.8%
viability, T/C [34]: 9.14%
